Holding throughout (details): Homo sapiens
The test system of assay [1] is HeLa. Nature of the assay: Compound was tested for its inhibition of HIV-1 induced focus formation in MAGI-CCR5 cells in strains like IIIB. The class given is functional, cell-based.
The subject of assay [2] is HeLa. Nature of the assay: Compound was tested for its inhibition of HIV-1 induced focus formation in MAGI-CCR5 cells in strains like NL4-3K103N. The class given is functional, cell-based.
Assay [3] deals with HeLa. Nature of the assay: Compound was tested for its inhibition of HIV-1 induced focus formation in MAGI-CCR5 cells in strains like IIIB-R(Y181C). The class given is functional, cell-based.
Assay [4] has as its system HeLa. Nature of the assay: Compound was tested for its cytotoxicity depending on the viability of mock-infected cells. The class given is functional.
In assay [5] the test system is HeLa. As to the kind of experiment: Compound was tested for its inhibition of HIV-1 induced focus formation in MAGI-CCR5 cells in strains like NL4-3. The class given is functional, cell-based.

In the case of `CCOCn1c(SC2CCCCC2)c(C(C)C)c(=O)[nH]c1=O`, the EC50 (usually the concentration giving half of the maximal effect) stood at 3 nM with HeLa [1], 250 nM with HeLa [2], 270 nM in the assay with HeLa [3] and 3 nM in the assay with HeLa [5]. In addition, in the assay on HeLa [4], the CC50 (as a rule, the concentration that lowers cell viability or growth by half) turned out to be 74800 nM.
On to `CCOCn1c(Cc2cc(C)cc(C)c2)c(C(C)C)c(=O)[nH]c1=O`, for which the EC50 came to 1 nM in the assay on HeLa [1], 40 nM in the assay with HeLa [2], 180 nM in the assay with HeLa [3] and 1 nM in the assay with HeLa [5]. This compound also had a CC50 with HeLa [4] of 52500 nM.
Turning to `CCOCn1c(Cc2ccccc2)c(C(C)C)c(=O)[nH]c1=O` [EMIVIRINE], the EC50 was 4 nM in the assay on HeLa [1], 1260 nM with HeLa [2], 13400 nM with HeLa [3] and 1 nM with HeLa [5]. In the assay with HeLa [4], this compound yielded a CC50 greater than 100000 nM.

These data come from ChEMBL document CHEMBL1132459, “Design of MKC-442 (emivirine) analogues with improved activity against drug-resistant HIV mutants” (J Med Chem, 1999).
